Experimental data taken from BigSolDB 2.1.

C1CNCCNCCNCCN1
solubility (mole fraction)
Conditions | 298.15 K | 303.15 K | 308.15 K | 313.15 K | 318.15 K | 323.15 K
in isopropanol | 0.00193 | 0.00202 | 0.00213 | 0.00224 | 0.0023 | 0.00249
in methanol | 0.00266 | 0.00268 | 0.00305 | 0.00318 | 0.00321 | 0.00328
